The structures appear in SMILES notation. pIC50: −log10 of the molar value.

The term pIC50 denotes the IC50 on a negative log10 scale, so that one unit is a factor of ten.

The target of the first test is T1, human LPA1 (Homo sapiens, UniProt Q92633).
T1 construct: expressed in transfected cells; host or cells: Chinese hamster ovary (CHO) cells
T1 sequence (Q92633 whole entry): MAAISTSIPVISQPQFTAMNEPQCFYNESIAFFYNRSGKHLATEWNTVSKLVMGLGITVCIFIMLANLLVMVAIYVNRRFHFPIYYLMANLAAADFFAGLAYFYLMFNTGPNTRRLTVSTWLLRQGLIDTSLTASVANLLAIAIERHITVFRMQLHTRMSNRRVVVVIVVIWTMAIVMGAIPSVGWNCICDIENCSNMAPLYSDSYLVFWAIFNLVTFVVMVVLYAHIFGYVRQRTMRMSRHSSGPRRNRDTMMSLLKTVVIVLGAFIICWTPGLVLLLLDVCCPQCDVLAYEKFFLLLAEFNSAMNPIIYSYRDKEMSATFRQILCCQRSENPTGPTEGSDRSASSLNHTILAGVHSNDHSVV
Put plainly: LPA1 functional antagonist assay (LPA-induced calcium flux). The test is classed as cell-based. Conditions: CHO cells overexpressing human LPA1; inhibition of calcium flux induced by 10 nM LPA; read-out: hLPA1 IC50. The method, then:
The effectiveness of compounds of the present invention as LPA1 inhibitors can be determined in an LPA1 functional antagonist assay as follows: Chinese hamster ovary cells overexpressing human LPA1 were plated overnight (15,000 cells/well) in poly-D-lysine coated 384-well microplates (Greiner bio-one, Cat #781946) in DMEM/F12 medium (Gibco, Cat #11039). Following overnight culture, cells were loaded with calcium indicator dye (AAT Bioquest Inc, Cat #34601) for 30 minutes at 37° C. The cells were then equilibrated to room temperature for 30 minutes before the assay. Test compounds solubilized in DMSO were transferred to 384 well non-binding surface plates (Corning, Cat #3575) using the Labcyte Echo acoustic dispense and diluted with assay buffer [1×HBSS with calcium/magnesium (Gibco Cat #14025-092), 20 mM HEPES (Gibco Cat #15630-080) and 0.1% fatty acid free BSA (Sigma Cat #A9205)] to a final concentration of 0.5% DMSO. Diluted compounds were added to the cells by FDSS6000 (Hamamatsu) at final concentrations ranging from 0.08 nM to 5 μM. and were then incubated for 20 min at room temperature at which time LPA (Avanti Polar Lipids Cat #857130C) was added at final concentrations of 10 nM to stimulate the cells. […] IC50 values were determined by fitting data to a 4-parameter logistic equation (GraphPad Prism, San Diego Calif.).
In general terms: Calcium assays in cells follow changes in intracellular calcium, usually with a dye or a luminescent sensor.
For `CC(OC(=O)N(C)CC1CCC1)c1c(-c2ccc(O[C@H]3CCC[C@H](C(=O)O)C3)cc2)nnn1C` (mixture of isomers) [Example 12, (1S,3S)-3-(4-(5-(1-(((cyclobutylmethyl)(methyl)carbamoyl)oxy)ethyl)-1-methyl-1H-1,2,3-triazol-4-yl)phenoxy)cyclohexane-1-carboxylic Acid], the pIC50 was 6.42.

Staying with this test, now noted: read-out: hLPA1 IC50.
`Cc1nc(-c2nnn(C)c2COC(=O)N(C)C(C)C2CCC2)ccc1O[C@H]1CCC[C@H](C(=O)O)C1` (mixture of isomers) [Example 20, (1S,3S)-3-((6-(5-((((1-cyclobutylethyl)(methyl)carbamoyl)oxy)methyl)-1-methyl-1H-1,2,3-triazol-4-yl)-2-methylpyridin-3-yl)oxy)cyclohexane-1-carboxylic acid]: the pIC50 was 7.55.

For the compound `CCCC(C)N(C)C(=O)OCc1c(-c2ccc(O[C@H]3CCC[C@H](C(=O)O)C3)cn2)nnn1C` (mixture of isomers) [Example 24, (1S,3S)-3-((6-(1-methyl-5-(((methyl(pentan-2-yl)carbamoyl)oxy)methyl)-1H-1,2,3-triazol-4-yl)pyridin-3-yl)oxy)cyclohexane-1-carboxylic acid], the negative logarithm of the IC50 (pIC50) was 7.33.

With `CCCC(C)N(C)C(=O)OCc1c(-c2ccc(O[C@H]3CCC[C@H](C(=O)O)C3)c(F)c2)nnn1C` (mixture of isomers) [Example 28, (1S,3S)-3-(2-fluoro-4-(1-methyl-5-(((methyl(pentan-2-yl)carbamoyl)oxy)methyl)-1H-1,2,3-triazol-4-yl)phenoxy)cyclohexane-1-carboxylic acid], the pIC50 was 7.60.

For `CCCC(C)N(C)C(=O)OCc1c(-c2ccc(O[C@H]3CCC[C@H](C(=O)O)C3)c(C)n2)nnn1C` (mixture of isomers) [Example 31, (1S,3S)-3-((2-methyl-6-(1-methyl-5-(((methyl(pentan-2-yl)carbamoyl)oxy)methyl)-1H-1,2,3-triazol-4-yl)pyridin-3-yl)oxy)cyclohexane-1-carboxylic acid], the negative logarithm of the IC50 (pIC50) is 7.44.

On to `CCCC(C)N(C)C(=O)OCc1c(-c2ccc(O[C@H]3CCC[C@H](C(=O)O)C3)c(C)c2)nnn1C` (mixture of isomers) [Example 39, (1S,3S)-3-(2-methyl-4-(1-methyl-5-(((methyl(pentan-2-yl)carbamoyl)oxy)methyl)-1H-1,2,3-triazol-4-yl)phenoxy)cyclohexane-1-carboxylic acid], for which the negative-log IC50 (pIC50) is 7.64.

For `CC(C1CC1)N(C)C(=O)OCc1c(-c2ccc(O[C@H]3CCC[C@H](C(=O)O)C3)c(F)c2)nnn1C` (mixture of isomers) [Example 45, (1S,3S)-3-(4-(5-((((1-cyclopropylethyl)(methyl)carbamoyl)oxy)methyl)-1-methyl-1H-1,2,3-triazol-4-yl)-2-fluorophenoxy)cyclohexane-1-carboxylic acid], the negative-log IC50 (pIC50) is 7.70.

On to `CC(C1CCC1)N(C)C(=O)OCc1c(-c2ccc(O[C@H]3CCC[C@H](C(=O)O)C3)cc2)nnn1C` (mixture of isomers) [Example 54, (1S,3S)-3-(4-(5-((((1-cyclobutylethyl)(methyl)carbamoyl)oxy)methyl)-1-methyl-1H-1,2,3-triazol-4-yl)phenoxy)cyclohexane-1-carboxylic acid], for which the pIC50 was 7.72.

In the case of `CCCC(C)N(C)C(=O)OCc1c(-c2ccc(O[C@H]3CCC[C@H](C(=O)O)C3)cc2)nnn1C` (mixture of isomers) [Example 57, trans-3-(4-(1-methyl-5-(((methyl(pentan-2-yl)carbamoyl)oxy)methyl)-1H-1,2,3-triazol-4-yl)phenoxy)cyclohexane-1-carboxylic acid], the pIC50 was 6.85.

Regarding `CC(C1CC1)N(C)C(=O)OCc1c(-c2ccc(O[C@H]3CCC[C@H](C(=O)O)C3)cc2)nnn1C` (mixture of isomers) [Example 65, trans-3-(4-(5-((((1-cyclopropylethyl)(methyl)carbamoyl)oxy)methyl)-1-methyl-1H-1,2,3-triazol-4-yl)phenoxy)cyclohexane-1-carboxylic acid], the pIC50 was 7.10.

With `CCC(C)N(C)C(=O)OCc1c(-c2ccc(O[C@H]3CCC[C@H](C(=O)O)C3)cc2)nnn1C` (mixture of isomers) [Example 68, (trans)-3-(4-(5-(((sec-butyl(methyl)carbamoyl)oxy)methyl)-1-methyl-1H-1,2,3-triazol-4-yl)phenoxy)cyclohexane-1-carboxylic acid], the pIC50 was 6.49.

For the compound `CCC(C1CCC1)N(C)C(=O)OCc1c(-c2ccc(O[C@H]3CCC[C@H](C(=O)O)C3)c(C)n2)nnn1C` (mixture of isomers) [Example 99, (1S,3S)-3-((6-(5-((((1-cyclobutylpropyl)(methyl)carbamoyl)oxy)methyl)-1-methyl-1H-1,2,3-triazol-4-yl)-2-methylpyridin-3-yl)oxy)cyclohexane-1-carboxylic acid], the pIC50 is 6.84.

Take `Cc1nc(-c2nnn(C)c2COC(=O)N2CCC(C)C2)ccc1O[C@H]1CCC[C@H](C(=O)O)C1` (mixture of isomers) [Example 147, (1S,3S)-3-((2-methyl-6-(1-methyl-5-(((3-methylpyrrolidine-1-carbonyl)oxy)methyl)-1H-1,2,3-triazol-4-yl)pyridin-3-yl)oxy)cyclohexane-1-carboxylic acid]: the pIC50 is 6.60.

On to `Cc1nc(-c2nnn(C)c2COC(=O)N2CCC(CC3CC3)C2)ccc1O[C@H]1CCC[C@H](C(=O)O)C1` (mixture of isomers) [Example 150, (1S,3S)-3-((6-(5-(((3-(cyclopropylmethyl)pyrrolidine-1-carbonyl)oxy)methyl)-1-methyl-1H-1,2,3-triazol-4-yl)-2-methylpyridin-3-yl)oxy)cyclohexane-1-carboxylic acid], for which the negative logarithm of the IC50 (pIC50) is 7.04.

Take `Cc1nc(-c2nnn(C)c2COC(=O)N2CCC(CC(C)C)C2)ccc1O[C@H]1CCC[C@H](C(=O)O)C1` (mixture of isomers) [Example 151, (1S,3S)-3-((6-(5-(((3-isobutylpyrrolidine-1-carbonyl)oxy)methyl)-1-methyl-1H-1,2,3-triazol-4-yl)-2-methylpyridin-3-yl)oxy)cyclohexane-1-carboxylic acid]: the pIC50 was 7.00.

Regarding `CCC1CCCN1C(=O)OCc1c(-c2ccc(O[C@H]3CCC[C@H](C(=O)O)C3)c(C)n2)nnn1C` (mixture of isomers) [Example 152, (1S,3S)-3-((6-(5-(((2-ethylpyrrolidine-1-carbonyl)oxy)methyl)-1-methyl-1H-1,2,3-triazol-4-yl)-2-methylpyridin-3-yl)oxy)cyclohexane-1-carboxylic acid], the pIC50 is 6.80.

Regarding `Cc1nc(-c2nnn(C)c2COC(=O)N2CCCC2CC(C)C)ccc1O[C@H]1CCC[C@H](C(=O)O)C1` (mixture of isomers) [Example 153, (1S,3S)-3-((6-(5-(((2-isobutylpyrrolidine-1-carbonyl)oxy)methyl)-1-methyl-1H-1,2,3-triazol-4-yl)-2-methylpyridin-3-yl)oxy)cyclohexane-1-carboxylic acid], the negative-log IC50 (pIC50) was 6.79.

On to `Cc1nc(-c2nnn(C)c2COC(=O)N2CCCC2C(F)(F)F)ccc1O[C@H]1CCC[C@H](C(=O)O)C1` (mixture of isomers) [Example 154, (1S,3S)-3-((2-methyl-6-(1-methyl-5-(((2-(trifluoromethyl)pyrrolidine-1-carbonyl)oxy)methyl)-1H-1,2,3-triazol-4-yl)pyridin-3-yl)oxy)cyclohexane-1-carboxylic acid], for which the negative-log IC50 (pIC50) is 6.49.

These data come from patent US10576062B2, “Carbamoyloxymethyl triazole cyclohexyl acids as LPA antagonists” (Bristol-Myers Squibb Company, priority 2016, dated 2020).
